# In patent US20040209777A1, “Agents for improving the qualities of fruits/grains” (priority 2001, published 2004):
# Like-named read-outs stand apart in the source and are kept apart here.
# Columns and labels:
# Japanese pear “Kousui” [1] = conditions: observed on February 5
# Method: The flower bud differentiation rate was surveyed by observing winter buds with the unaided eye for each of long fruiting branches and short fruiting branches for every section on February 5 of the next year. The flower bud differentiation rate was calculated as a proportion of the flower bud number (mixed flower buds) to the total winter bud number, provided that the last-year branch was regarded as 1 unit, to which branch a long fruiting branch or a short fruiting branch attached.
# Japanese pear “Kousui” [2] = conditions: average Score (+3 to −3) of sprayed product, non-sprayed product = Score 0
# Method: In this connection, the scores of the sprayed product shown in Table 5 were counted by the following way. I.e., this was carried out in a paired comparison method where the “non-sprayed product” was assigned to Score 0 (control), and the “sprayed product” was scored by 7-class evaluation consisting of Scores +3, +2, +1, 0, −1, −2, and −3, employing a plurality of panels. Next, average values of the results of scoring the “sprayed product” by the plurality of panels were calculated and the average values were assigned to the Scores of the “sprayed product” in Table 5.
# [3] = tested on: adult grape tree (cultivar Cabernet sauvignon)
# Method: The aqueous proline solution, which had been prepared by dissolving the high purity proline as described above into water to provide a 200 ppm concentration and adding 10 mL of “ATLOX BI” (wetting agent) thereto, was sprayed on the adult grape tree (cultivar Cabernet sauvignon) with an interval of 15 days during the period from the end of June to the middle of September in a year, which is the véraison period as the fruit growing period.
# The sprayed amount was a certain amount to allow the solution to drop down from the leaf surfaces. The control section was assigned to another non-sprayed adult tree. Both the test section and the control section were harvested on October 25 in that year to analyze sweetness and a red-colored state. Sweetness was evaluated in terms of the sugar content (Brix) of a juice prepared by mixing and pulverizing seed-removed fruits and pericarps. Colored state (red) was evaluated by measuring a light absorbance of the juice at 522 nm.
# According to the market evaluation for a grape cultivar for red wine and a red grape cultivar such as Kyohou, the stronger the coloration (red) of the pericarp is, the better the quality is.
# Japanese pear “Kousui” [4] = tested on: Japanese pear “Kousui”
# Japanese pear “Kousui” [5] = tested on: Japanese pear “Kousui”; remark: listed apart in the source
# Method: Regarding the sugar concentration of fruits, the sugar content (Brix) of the fruits harvested on August 24 of the year. The content of the individual sugar species was measured by selecting 10 fruits from each section to obtain fruit juices prepared by pressing the fruits, filtering each juice with a membrane filter having a 0.45 μm diameter, and then, quantifying the sugar content for every sugar species by HPLC (Column: “Shim-pack SCR-101C”, Column temperature: 80° C., Solvent: water (1 mL/min); and Detector: RI).
# [6] = grape juice, harvested October 25, 200 ppm proline sprayed every 15 days
# [7] = pear fruit juice, harvested on August 24, HPLC, n = 10
smiles,measurement,setting,value
"O=C(O)[C@@H]1CCCN1 [proline, L-proline]",flower bud differentiation rate,"Japanese pear “Kousui” [1]; long fruiting branch, Total",39.83%
same,flower bud differentiation rate,"Japanese pear “Kousui” [1]; long fruiting branch, Tree No. 1",40.60%
same,flower bud differentiation rate,"Japanese pear “Kousui” [1]; long fruiting branch, Tree No. 2",39.05%
same,flower bud differentiation rate,"Japanese pear “Kousui” [1]; short fruiting branch, Total",39.38%
same,flower bud differentiation rate,"Japanese pear “Kousui” [1]; short fruiting branch, Tree No. 1",40.83%
same,flower bud differentiation rate,"Japanese pear “Kousui” [1]; short fruiting branch, Tree No. 2",37.93%
same,Apparent color,Japanese pear “Kousui” [2],0.06
same,Comprehensive evaluation,Japanese pear “Kousui” [2],0.74
same,Hardness,Japanese pear “Kousui” [2],−0.13
same,Juiciness,Japanese pear “Kousui” [2],0.02
same,Preferableness of sourness,Japanese pear “Kousui” [2],−0.06
same,Preferableness of sweetness,Japanese pear “Kousui” [2],0.43
same,Preferableness of whole aroma,Japanese pear “Kousui” [2],0.64
same,Preferableness of whole feeling upon eating,Japanese pear “Kousui” [2],0.31
same,Preferableness of whole flavor,Japanese pear “Kousui” [2],0.50
same,Preferableness of whole taste,Japanese pear “Kousui” [2],0.61
same,Strength of sourness,Japanese pear “Kousui” [2],−0.19
same,Strength of sweetness,Japanese pear “Kousui” [2],0.95
same,Strength of whole aroma,Japanese pear “Kousui” [2],0.26
same,Strength of whole flavor,Japanese pear “Kousui” [2],0.57
same,Strength of whole taste,Japanese pear “Kousui” [2],0.79
same,Tongue feeling,Japanese pear “Kousui” [2],−0.19
same,Unripe flavor,Japanese pear “Kousui” [2],−0.41
same,Colored degree (OD at 522 nm),[3]; [6],0.14 OD at 522 nm
same,Sugar content (Brix),[3]; [6],20.3 Brix
same,increment of anthocyanin content in the juice,"[3]; grape juice, proline-sprayed section vs control section",about 20%
same,difference in the size of fruits,"[3]; grape, proline-sprayed section vs control section",No difference
same,drug damage caused by spraying,"Japanese pear “Kousui” [4]; Japanese pear “Kousui”, 200 ppm proline sprayed on leaves",any drug damage caused by spraying has not been observed
same,Harvested number of pears,"Japanese pear “Kousui” [4]; Total of all fruit sizes, Total of harvest days, 200 ppm proline sprayed on leaves",638
same,Harvested number of pears,"Japanese pear “Kousui” [4]; Total of all fruit sizes, harvest day August 18, 200 ppm proline sprayed on leaves",130
same,Harvested number of pears,"Japanese pear “Kousui” [4]; Total of all fruit sizes, harvest day August 21, 200 ppm proline sprayed on leaves",185
same,Harvested number of pears,"Japanese pear “Kousui” [4]; Total of all fruit sizes, harvest day August 24, 200 ppm proline sprayed on leaves",323
same,Harvested number of pears,"Japanese pear “Kousui” [4]; fruit size 2L, Total of harvest days, 200 ppm proline sprayed on leaves",115
same,Harvested number of pears,"Japanese pear “Kousui” [4]; fruit size 2L, harvest day August 18, 200 ppm proline sprayed on leaves",33
same,Harvested number of pears,"Japanese pear “Kousui” [4]; fruit size 2L, harvest day August 21, 200 ppm proline sprayed on leaves",46
same,Harvested number of pears,"Japanese pear “Kousui” [4]; fruit size 2L, harvest day August 24, 200 ppm proline sprayed on leaves",36
same,Harvested number of pears,"Japanese pear “Kousui” [4]; fruit size 3L, Total of harvest days, 200 ppm proline sprayed on leaves",233
same,Harvested number of pears,"Japanese pear “Kousui” [4]; fruit size 3L, harvest day August 18, 200 ppm proline sprayed on leaves",46
same,Harvested number of pears,"Japanese pear “Kousui” [4]; fruit size 3L, harvest day August 21, 200 ppm proline sprayed on leaves",64
same,Harvested number of pears,"Japanese pear “Kousui” [4]; fruit size 3L, harvest day August 24, 200 ppm proline sprayed on leaves",123
same,Harvested number of pears,"Japanese pear “Kousui” [4]; fruit size 4L, Total of harvest days, 200 ppm proline sprayed on leaves",160
same,Harvested number of pears,"Japanese pear “Kousui” [4]; fruit size 4L, harvest day August 18, 200 ppm proline sprayed on leaves",25
same,Harvested number of pears,"Japanese pear “Kousui” [4]; fruit size 4L, harvest day August 21, 200 ppm proline sprayed on leaves",32
same,Harvested number of pears,"Japanese pear “Kousui” [4]; fruit size 4L, harvest day August 24, 200 ppm proline sprayed on leaves",103
same,Harvested number of pears,"Japanese pear “Kousui” [4]; fruit size 5L, Total of harvest days, 200 ppm proline sprayed on leaves",31
same,Harvested number of pears,"Japanese pear “Kousui” [4]; fruit size 5L, harvest day August 18, 200 ppm proline sprayed on leaves",0
same,Harvested number of pears,"Japanese pear “Kousui” [4]; fruit size 5L, harvest day August 21, 200 ppm proline sprayed on leaves",4
same,Harvested number of pears,"Japanese pear “Kousui” [4]; fruit size 5L, harvest day August 24, 200 ppm proline sprayed on leaves",27
same,Harvested number of pears,"Japanese pear “Kousui” [4]; fruit size L, Total of harvest days, 200 ppm proline sprayed on leaves",55
same,Harvested number of pears,"Japanese pear “Kousui” [4]; fruit size L, harvest day August 18, 200 ppm proline sprayed on leaves",19
same,Harvested number of pears,"Japanese pear “Kousui” [4]; fruit size L, harvest day August 21, 200 ppm proline sprayed on leaves",18
same,Harvested number of pears,"Japanese pear “Kousui” [4]; fruit size L, harvest day August 24, 200 ppm proline sprayed on leaves",18
same,Harvested number of pears,"Japanese pear “Kousui” [4]; fruit size M, Total of harvest days, 200 ppm proline sprayed on leaves",20
same,Harvested number of pears,"Japanese pear “Kousui” [4]; fruit size M, harvest day August 18, 200 ppm proline sprayed on leaves",0
same,Harvested number of pears,"Japanese pear “Kousui” [4]; fruit size M, harvest day August 21, 200 ppm proline sprayed on leaves",11
same,Harvested number of pears,"Japanese pear “Kousui” [4]; fruit size M, harvest day August 24, 200 ppm proline sprayed on leaves",9
same,Harvested number of pears,"Japanese pear “Kousui” [4]; fruit size S, Total of harvest days, 200 ppm proline sprayed on leaves",24
same,Harvested number of pears,"Japanese pear “Kousui” [4]; fruit size S, harvest day August 18, 200 ppm proline sprayed on leaves",7
same,Harvested number of pears,"Japanese pear “Kousui” [4]; fruit size S, harvest day August 21, 200 ppm proline sprayed on leaves",10
same,Harvested number of pears,"Japanese pear “Kousui” [4]; fruit size S, harvest day August 24, 200 ppm proline sprayed on leaves",7
same,ripening of fruits (fruit number for every harvest day),Japanese pear “Kousui” [4]; proline-treated section vs control section,fruits ripened earlier as a tendency
same,Fructose content in the fruits,Japanese pear “Kousui” [5]; [7],56.74 mg/mL
same,Glucose content in the fruits,Japanese pear “Kousui” [5]; [7],18.67 mg/mL
same,Sorbitol content in the fruits,Japanese pear “Kousui” [5]; [7],28.83 mg/mL
same,Sucrose content in the fruits,Japanese pear “Kousui” [5]; [7],62.09 mg/mL
same,Total individual sugar contents in the fruits,Japanese pear “Kousui” [5]; [7],166.12 mg/mL
same,Sugar content (Brix),"Japanese pear “Kousui” [5]; pear fruits harvested on August 24, 200 ppm proline sprayed",11.7 ± 0.1 Brix
same,pericarp color,"Japanese pear “Kousui” [5]; pear fruits harvested on August 24, proline-treated section",somewhat red pericarp
